In patent US8758474B2, “Urea fertilizer containing central volatilization inhibitor particles to reduce release of ammonia and processes for making same” (NFT Industries, LLC, priority 2010, dated 2014):

Test system: enzymes in the soil
Test: Ammonia volatilization test (fertilizer applied to the surface of moist soil, ammonia captured in sulfuric acid and titrated)
Settings: cumulative, percent of total starting nitrogen
From the text: Nitrogen lost, as ammonia, after soil application occurs over a long time period. The present volatilization test was designed to simulate and quantify processes in the soil. The volatilization test apparatus and procedure utilized to evaluate the test product samples described in above Table 1 is summarized as follows.
Procedure for Measurement of Ammonia
The test was designed to determine the volatility of a fertilizer product when applied to the surface of the soil. The baseline, standard that used was one gram of urea. Each sample was placed in a sample flask which contained a pre-weighed amount of soil and water. The same source of soil was used in all testing. Humidified air was then passed over the sample to carry any ammonia which had volatilized by the enzymes in the soil, to a receiving flask. The receiving flask contained sulfuric acid which captured the ammonia. The receiving flask was then titrated to determine the amount of ammonia volatilized from each sample.
Mixed Methyl Red—Methylene Blue Indicator (150 mL): • Dissolve 0.2 g of methyl red in 100 mL of ethyl alcohol (70-95%). Dissolve 0.1 g methylene blue in 50 mL of ethyl alcohol (70-95%). Mix together. • Indicator was good for 30 days. Testing Apparatus: Manifold: • a. A manifold was constructed of ½ inch cpvc (chlorinated polyvinyl chloride). • b. The manifold has 22 ports with a needle valve for air flow adjustment. • c. The tubing from the manifold to the sample flask was connected to a 1/16 inch hose barb on the needle valve.
2. Air Supply: • a. The air was supplied by an air compressor with a regulator to control the pressure to the manifold. • b. The air goes through a rotameter with a control knob to adjust the flow to the manifold (A minimum of 70 volumes of the head space is in each sample flask during each sampling interval, often much higher. Head space refers to the air volume above the soil.). • c. The air from the rotameter goes through a bubbler containing 25% sulfuric acid solution. After the sulfuric acid bubbler is a knock out chamber to prevent any sulfuric acid mist from going further. • d. The air then goes to a water bubbler to hydrate the air before going through another knock out chamber before entering the manifold.
3. Sample Flask • a. The sample flask is a 250 mL Erlenmeyer flask. The tubing from the manifold is connected to the flask by a barb fitting in a rubber stopper. • b. Each sample flask contained 48 grams of soil (dried and sieved through a 12 mesh screen), 12 grams of water, and the equivalent of one gram of urea. The materials were added to the flasks in the order list to ensure that the sample was added to moist soil (20-25%).
4. Receiving Flask • a. The receiving flask is a 125 mL Erlenmeyer flask. Tubing from the stopper on the sample flask is connected to a glass sparger passing through a stopper to the receiving flask. • b. Each receiving flask contains 50 mL of 0.5N Sulfuric Acid. • c. The tip of the glass sparger is below the level of the acid to allow the air to bubble through the acid and capture any ammonia present. • d. The receiving flask is removed and replaced with flask containing fresh solution at the intervals of 3, 7 and 10 days.
5. Measurement of Ammonia • a. The contents of each receiving flask removed at the intervals of 3, 7 and 10 days were tested for ammonia according to the above described Procedure for Measurement of Ammonia. The first ten days are most critical and are sufficient to determine reliable comparative results. • b. […] Ammonia Volatilization Test Results for Products in Table 2

% Ammonia Released (Table 2 series, Day 0) | % Ammonia Released (Table 2 series, Day 3) | % Ammonia Released (Table 2 series, Day 7) | % Ammonia Released (Table 2 series, Day 10) | % Ammonia Released (Table 3 series, Day 0) | % Ammonia Released (Table 3 series, Day 3) | % Ammonia Released (Table 3 series, Day 7) | % Ammonia Released (Table 3 series, Day 10) | % Ammonia Released (Table 5 series, Day 0) | % Ammonia Released (Table 5 series, Day 3) | % Ammonia Released (Table 5 series, Day 7) | % Ammonia Released (Table 5 series, Day 10) | Compound | % Ammonia Released (Table 4 series, Day 0) | % Ammonia Released (Table 4 series, Day 3) | % Ammonia Released (Table 4 series, Day 7) | % Ammonia Released (Table 4 series, Day 10)
– | – | – | – | – | – | – | – | – | – | – | – | N.O=P(O)(O)O [MAP, monoammonium phosphate] | 0% | 0.74% | 1.61% | 2.09%
0% | 0.23% | 72.29% | 82.37% | 0% | 1.09% | 38.83% | 81.33% | 0% | 0.05% | 40.35% | 65.11% | NC(N)=O [Urea] | 0% | 27.41% | 88.77% | 90.81%
